“And” between values parts separate entries of the source, which are not always exact repeats. Identical values can stand only once. Inconclusive results are not listed. The source made the active and inactive calls.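 How the source made its calls: active means fitted half-maximal concentration of signal decrease at or below twice the sample's top tested concentration; inconclusive means flat curve between -70 and -30 percent, or poor fit; inactive means flat within 30 percent, signal rise, or potency above limit.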
Molecular target: T. gondii ME49Luc in IFN-y HeLa, luciferase, 72 h
Test: T. gondii growth inhibition with IFN-gamma, dose response, cell-based, ME49Luc, HeLa, luciferase, 72 h (AID 1259418)

| Structure (SMILES) | AC50 |
| --- | --- |
| C/C=C/c1ccc([C@H]2[C@@H](CO)N3CCCCN(S(=O)(=O)c4ccc(OC)cc4)C[C@@H]23)cc1 | 18.4 µM |
| CCOc1ccc(-c2nc(CN3CCN(C(=O)NC4CCCC4)CC3)c(C)o2)cc1 | 29.5 µM |
| CCN(c1ccccc1C)S(=O)(=O)c1cc2c3c(c1)CCC(=O)N3CCC2 | 13 µM |
| Cc1ccccc1-c1ccc(C2[C@@H]3CN(C(=O)C4CCOCC4)C[C@H]2N3)cc1 (stereo partly specified) | 26.4 µM |
| COc1ccc(N2CC(NC(=O)C(=O)c3c[nH]c4ccccc34)CC2=O)cc1 (stereo unspecified) | 28.3 µM |
| Cc1ccc(CNC2=NCCNC23CCN(S(=O)(=O)c2cc(C)c(C)cc2C)CC3)cc1 | 4.79 µM |
| CCCNC(=O)[C@@H]1[C@@H](CO)[C@@H]2Cn3c(ccc(/C=C/c4ccccc4)c3=O)[C@@H]2N1CC1CC1 | 18.5 µM |
| CCCCCCCCCCCCCCCC[N+](C)(C)C | 16.3 µM |
| CCCc1cc(C2CCCN2C(=O)Cn2nc(C(F)(F)F)c3c2CCCC3)no1 (stereo unspecified) | 21.6 µM |
| CCc1ccc(S(=O)(=O)N2CCC3(CC2)NCCN=C3NCc2cccc(F)c2)cc1 | 16.3 µM |
| Cc1nc(CCNC(=O)[C@H]2CCCN2S(=O)(=O)c2ccccc2)cs1 | 32.3 µM |
| Fc1cccc(CN2C[C@@H]3N[C@H](C2)C3c2ccc(/C=C/c3ccccc3)cc2)c1 (stereo partly specified) | 12.1 µM and 17.5 µM |
| O=C(CC1N=C2c3ccccc3N=C(SCc3ccccc3F)N2C1=O)NC1CCCCC1 (stereo unspecified) | 19.1 µM |
| C1=C(c2ccccc2)CC(c2ccccc2)=NN=C1c1ccccc1 | 15.6 µM |
| CN(C[C@H]1N[C@@H](CO)[C@H]1c1ccc(-c2ccc(F)cc2)cc1)C(=O)C1CCC1 | 16.2 µM |
| Cc1ccc(-c2nc(CN3CCN(C(=O)NC4CCCC4)CC3)c(C)o2)cc1 | 20.9 µM |
| Cc1ccc(-c2coc(-c3ccc(NS(=O)(=O)c4ccc(Br)cc4C)cc3)n2)c(C)c1 | 26.7 µM |
| COCC(=O)N1[C@H](C#N)[C@H](c2ccc(C#CCC3CCCC3)cc2)[C@@H]1CO | 29.6 µM and 27.8 µM |
| CCc1c2c(nc3ccc(OC(=O)N4CCC(N5CCCCC5)CC4)cc13)-c1cc3c(c(=O)n1C2)COC(=O)[C@]3(O)CC | 21 µM |
| Cc1ccc(NC(=O)N2CCN(Cc3nc(-c4cccc(Cl)c4)oc3C)CC2)cc1Cl | 15.7 µM |
| O=C(Cc1ccccn1)N1CC(=O)N2[C@@H](CO)[C@@H](c3ccc(C#CCC4CCCC4)cc3)[C@@H]2C1 | 13.2 µM |
| Cc1ccc(CSC2=Nc3ccccc3C3=NC(CCC(=O)NCc4cccs4)C(=O)N23)cc1 (stereo unspecified) | 17.5 µM |

| Structure (SMILES) | AC50 |
| --- | --- |
| O=C(c1cccc(F)c1)N1CCCCN2[C@H](C1)[C@@H](c1ccc(C#CC3(O)CCCC3)cc1)[C@@H]2CO | 11 µM and 29.4 µM |
| CCc1c(C)sc2c1CCN(Cc1nc(-c3ccc(OC(C)C)cc3)oc1C)C2c1ccccc1 (stereo unspecified) | > 39 µM (inactive) |
| COc1ccccc1C#Cc1ccc([C@H]2[C@@H](CO)N3CCCCN(C(=O)C4CCC4)C[C@@H]23)cc1 | 18.8 µM |
| COc1cccc(-c2nc3c(s2)CN(S(=O)(=O)c2cccc(F)c2)CC3)c1 | 11.3 µM |
| COc1ccc(-c2ccc3nc(CO)[nH]c3c2)cc1Cl | 16.2 µM |
| O=C(Cc1cccnc1)N1CC(=O)N2[C@H](CO)[C@H](c3ccc(C#CC4CCCCC4)cc3)[C@H]2C1 | 19.4 µM |
| O=C1c2cccc(O)c2C(=O)c2c(O)cc(CO)cc21 | 16.6 µM |
| Cc1ccc(C)c(S(=O)(=O)N2CCC3(CC2)NCCN=C3NCc2ccccc2F)c1 | 28.5 µM |
| CCc1ccc(S(=O)(=O)N2CCC3(CC2)NCCN=C3NCc2cc(F)cc(F)c2)cc1 | 6.6 µM |
| COc1ccc(S(=O)(=O)N(Cc2nc(-c3cccc(C)c3)oc2C)c2ccccc2OC)cc1 | 6 µM |
| C[C@H]1CN([C@@H](C)CO)C(=O)c2cccc(NS(=O)(=O)c3ccc(F)cc3)c2O[C@H]1CN(C)Cc1ccc(Cl)c(Cl)c1 | 19.2 µM and 11.7 µM |
| CCCCNC(=O)CCC1N=C2c3ccccc3N=C(SCc3ccc(C)cc3C)N2C1=O (stereo unspecified) | 25.1 µM |
| O=C(Nc1ccccc1F)N1CCCCN2[C@@H](CO)[C@@H](c3ccc(/C=C/c4ccccc4)cc3)[C@@H]2C1 | 22 µM |
| COc1cccc(-c2ccc(C3[C@@H]4CN(Cc5ccccn5)C[C@H]3N4)cc2)c1 (stereo partly specified) | 15.6 µM |
| CCOc1ccccc1-n1c(C(C)N2CCN(C(=O)COc3ccc(Cl)cc3)CC2)nc2ccccc2c1=O (stereo unspecified) | 7.75 µM |
| COc1cccc(-c2nc3c(s2)CN(S(=O)(=O)c2ccccc2C)CC3)c1 | 6.95 µM and 17.2 µM |
| COc1ccccc1-c1nc(C)c(-c2ccc(SCc3c(F)cccc3Cl)nn2)s1 | 38.4 µM |
| Cc1cccc(C(=O)Nc2c(C(=O)NCc3cccnc3)[nH]c3ccccc23)c1 | > 39 µM (inactive) |
| Cn1c2ccccc2c2c1cc(C(=O)N1CCN(c3ccncc3)CC1)n2S(C)(=O)=O | 26.6 µM |
| COc1ccc(-c2nc(NCCN3CCC(C)CC3)c3ccccc3n2)cc1 | 9.97 µM |
| O=C(CCc1ccccc1)N1CCC2(CC1)Nc1ccc(Cl)cc1-n1cccc12 | 27.4 µM |
| CC(C)CC#Cc1ccc([C@@H]2[C@H](CO)N3C(=O)CN(C(=O)c4cccc(F)c4)C[C@@H]23)cc1 | 18.2 µM |

| Structure (SMILES) | AC50 |
| --- | --- |
| Cc1ccc2[nH]c(C(=O)NCc3ccncc3)c(NC(=O)c3ccc(F)cc3)c2c1 | 1.99 µM |
| COc1ccccc1CNC(=O)CCC1N=C2c3ccccc3N=C(SCc3cccc(F)c3)N2C1=O (stereo unspecified) | > 39 µM (inactive) |
| O=C(Nc1ccccc1)c1ncn2c1CN(CC1CC1)S(=O)(=O)c1ccccc1-2 | 32.6 µM |
| CCCNC(=O)[C@H]1[C@H](CO)[C@H]2Cn3c(ccc(C4=CCCCC4)c3=O)[C@H]2N1Cc1ccccc1F | 8.99 µM |
| O=C(NCCc1csc(-c2ccccc2)n1)C1CCN(C(=O)c2ccc(F)c(Cl)c2)CC1 | 5.61 µM |
| C[C@@H]1CN([C@@H](C)CO)C(=O)c2cccc(NC(=O)NC3CCCCC3)c2O[C@@H]1CN(C)Cc1ccc(C(F)(F)F)cc1 | 25.7 µM |
| COc1ccc(-c2nc(Cn3nnc(-c4nc(-c5ccncc5)no4)c3C)c(C)o2)cc1 | > 39 µM (inactive) |
| O=C(C[C@H]1CC[C@H]2[C@@H](COC[C@@H](O)CN2Cc2ccc(Oc3ccccc3)cc2)O1)N1CCN(c2ccccc2)CC1 | 15.2 µM and 32.3 µM |
| CC(C)n1cnc2c(NCC3CC3)nc(C3CCN(C(=O)c4cccc(F)c4F)CC3)cc21 | 19.8 µM |
| Cc1ccccc1S(=O)(=O)N1C[C@@H]2N[C@H](C1)C2c1ccc(/C=C/c2ccccc2)cc1 (stereo partly specified) | 9.34 µM |
| Oc1cccc(-c2nccn2-c2cccc(-c3ccn[nH]3)c2)c1 | 22.7 µM |
| O=C(Nc1cccc(F)c1)N1CCCCN2[C@@H](CO)[C@H](c3ccc(C#Cc4cccnc4)cc3)[C@@H]2C1 | 4.48 µM |
| Cc1ccc(C(=O)N2CCC3(CC2)Nc2ccc(Cl)cc2-n2cccc23)cc1F | > 39 µM (inactive) |
| COc1cccc(CNC2=NCCNC23CCN(S(=O)(=O)c2cc(C)c(C)cc2C)CC3)c1 | 9.29 µM |
| O=S(=O)(c1ccc2c(c1)CCCC2)N1CCC2(CC1)NCCN=C2NCc1ccc2c(c1)OCO2 | 11.1 µM |
| COc1ccc(-c2nc3c(s2)CN(S(=O)(=O)c2cc(C)cc(C)c2)CC3)cc1 | 3.89 µM and 11.8 µM |
| COc1cccc(-c2nc3c(s2)CN(C(=O)Nc2ccc(Cl)cc2)CC3)c1 | > 20 µM (inactive) |
| CCc1ccc(S(=O)(=O)N2CCC3(CCCN(Cc4c(C)noc4C)C3)C2)cc1 (stereo unspecified) | 22.9 µM |
| Cc1ccccc1S(=O)(=O)N1CC[C@H]2[C@H](CO)Nc3ccc(-c4ccc(F)cc4)cc3[C@H]21 | 28.5 µM |
| COc1ccccc1CNC(=O)CC1N=C2c3ccccc3N=C(SCc3cc(=O)n4cc(Cl)ccc4n3)N2C1=O (stereo unspecified) | 29.6 µM |
| COc1ccc(-c2nc(NCCCN3CCCCC3C)c3ccccc3n2)cc1 (stereo unspecified) | 13.9 µM |
| CCCNC(=O)N1C[C@@H]2N[C@H](C1)C2c1ccc(-c2ccccc2C)cc1 (stereo partly specified) | 18.1 µM |
